Results: ChEMBL document CHEMBL5500362, “Benzothiazole derivatives as histone deacetylase inhibitors for the treatment of autosomal dominant polycystic kidney disease” (Eur J Med Chem, 2024)
Activity calls are given as the source filed them. The rule behind the calls is not given here.

Key:
[1] = system: HeLa; conditions: Homo sapiens, dose 100.0 nM, time 15.0 min;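 also: HDAC inhibition in HeLa cells, read on a microplate reader using an acetylated peptide AMC substrate, expressed relative to control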
[2] = system: Mus musculus; experiment: Inhibition of renal cystogenesis in PKD1 knockout ADPKD C57BL/6 mouse assessed as reduction kidney to body weight ratio index at 1 mg/kg, sc administered once daily for 1 week (19.5 +/-0.5%); assay type: functional; set-up: scale not given: the % may be the effect or the level left; conditions: time 1 weeks
[3] = system: MDCK; experiment: Upregulation of acetylation of alpha tubulin level in MDCK cells incubated for 24 hrs by Western blot analysis; assay type: functional, cell-based; conditions: Canis lupus familiaris, dose 0.3-1 µM
[4] = system: Mus musculus; experiment: Inhibition of renal cystogenesis in PKD1 knockout ADPKD C57BL/6 mouse assessed as increase in renal parenchyma at 1 mg/kg, sc administered once daily for 1 week by H and E staining based analysis; assay type: functional, organism-based; conditions: time 1.0 weeks
[5] = AUC (0 to t) in C57BL/6 mouse at 1 mg/kg, sc by LC-MS/MS analysis; assay type: ADME, organism-based; conditions: in vivo
[6] = Tmax in C57BL/6 mouse at 1 mg/kg, sc by LC-MS/MS analysis; assay type: ADME, organism-based; conditions: in vivo
[7] = system: MDCK; experiment: Inhibition of cystogenesis in PKD1 knockout ADPKD MDCK cells assessed as inhibition of cyst formation at 0.3 to 1 uM; assay type: functional, cell-based; conditions: Canis lupus familiaris, dose 0.3-1 µM, time 4-10 day, TDE = time-dependent effect
[8] = Cmax in C57BL/6 mouse at 1 mg/kg, sc by LC-MS/MS analysis; assay type: ADME, organism-based; conditions: in vivo
[9] = system: Mus musculus; experiment: Inhibition of renal cystogenesis in PKD1 knockout ADPKD C57BL/6 mouse assessed as reduction in kidney size at 1 mg/kg, sc administered once daily for 1 week; assay type: functional, organism-based; conditions: time 1.0 weeks
[10] = system: MDCK; experiment: Cytotoxicity against MDCK cells at 0.3 to 1 uM by CCK-8 assay; assay type: toxicity, cell-based, Canis lupus familiaris; conditions: dog, dose 0.3-1 µM
[11] = AUC (0 to infinity) in C57BL/6 mouse at 1 mg/kg, sc by LC-MS/MS analysis; assay type: ADME, organism-based; conditions: in vivo
[12] = system: MDCK; experiment: Antiproliferative activity against MDCK cells at 0.3 to 1 uM by Hoechst 33342 and EdU staining based analysis; assay type: functional, cell-based; conditions: Canis lupus familiaris, dose 0.3-1 µM
[13] = Terminal elimination half life in C57BL/6 mouse at 1 mg/kg, sc by LC-MS/MS analysis; assay type: ADME, organism-based; conditions: in vivo, read-out: LambdaZ (converted)
[14] = system: Mus musculus; experiment: Inhibition of renal cystogenesis in PKD1 knockout ADPKD C57BL/6 mouse assessed as reduction in renal cyst formation at 1 mg/kg, sc administered once daily for 1 week by H and E staining based analysis; assay type: functional, organism-based; conditions: time 1.0 weeks
[15] = system: Mus musculus; experiment: Inhibition of renal cystogenesis in PKD1 knockout ADPKD C57BL/6 mouse assessed as decrease in kidney size at 1 mg/kg, sc administered once daily for 1 week by H and E staining based analysis; assay type: functional, organism-based; conditions: time 1.0 weeks
[16] = system: Kidney; experiment: Ex vivo inhibition of renal cystogenesis in wild type C57BL/6 mouse kidney assessed as suppression of 8-Br-cAMP-induced cyst development at 1 uM treated for 6 days by inverted microscopic analysis; assay type: functional, tissue-based; conditions: time 6.0 day
[17] = Half life in C57BL/6 mouse at 1 mg/kg, sc by LC-MS/MS analysis; assay type: ADME, organism-based; conditions: in vivo
[18] = system: MDCK; experiment: Inhibition of colony formation in MDCK cells measured after 8 days by crystal violet staining based analysis; assay type: functional, cell-based; conditions: Canis lupus familiaris, dose 0.3-1 µM, time 8.0 day

SMILES	inhibition [1]	further results
COc1ccc2nc(-c3ccc(OCCCCCCC(=O)NO)cc3)sc2c1	51.7%	
COc1cc(-c2nc3ccccc3s2)ccc1OCCCCCCC(=O)NO	74.2%	
Cc1ccccc1C(=O)Nc1ccc(C(=O)N2CCCC(O)c3cc(Cl)ccc32)c(C)c1 (configuration not stated) [TOLVAPTAN]		Activity [2]: 15.8%
O=C(CCCCCCOc1cccc(-c2nc3ccccc3s2)c1)NO	76.8%	
Cc1ccc2nc(-c3ccc(OCCCCCCC(=O)NO)cc3)sc2c1	52.3%	
O=C(CCCCCCCOc1cccc(-c2nc3ccccc3s2)c1)NO	65.3%	
COc1ccc(-c2nc3cc(Cl)ccc3s2)cc1OCCCCCCC(=O)NO	37.2%	
O=C(CCCCCCOc1ccc(-c2nc3ccc(Cl)cc3s2)cc1)NO	21.7%	
O=C(CCCCCOc1cccc(-c2nc3ccccc3s2)c1)NO	76.7%	
COc1ccc(-c2nc3ccc(Cl)cc3s2)cc1OCCCCCCC(=O)NO	44.5%	
COc1ccc2nc(-c3ccc(OC)c(OCCCCCCC(=O)NO)c3)sc2c1	80.3%	
COc1ccc(-c2nc3ccc(F)cc3s2)cc1OCCCCCCC(=O)NO	77.3%	
O=C(CCCCCOc1ccc(-c2nc3ccccc3s2)cc1)NO	26.8%	
O=C(CCCCCCOc1ccc(-c2nc3ccccc3s2)c(Cl)c1)NO	33.2%	
O=C(CCCCCCCOc1ccc(-c2nc3ccccc3s2)cc1)NO	9.17%	
O=C(CCCCCCOc1ccc(-c2nc3ccccc3s2)cc1F)NO	46.2%	
O=C(CCCOc1cccc(-c2nc3ccccc3s2)c1)NO	41.2%	
O=C(COc1ccc(-c2nc3ccccc3s2)cc1)NO	34.8%	

SMILES	inhibition [1]	further results
O=C(COc1cccc(-c2nc3ccccc3s2)c1)NO	66.5%	
O=C(CCCCCCOc1cccc(-c2nc3ccccc3s2)c1Cl)NO	62%	
O=C(CCCOc1ccc(-c2nc3ccccc3s2)cc1)NO	3.33%	
O=C(CCCCCCOc1ccc(-c2nc3ccc(F)cc3s2)cc1)NO	61.2%	
O=C(CCCCCCOc1ccc(-c2nc3ccccc3s2)cc1Cl)NO	18.3%	
O=C(CCCCOc1cccc(-c2nc3ccccc3s2)c1)NO	45.7%	
CCOc1cc(-c2nc3ccccc3s2)ccc1OCCCCCCC(=O)NO	75%	
COc1ccc(-c2nc3ccccc3s2)cc1OCCCCCCC(=O)NO	88%	Activity [3]: Dose-Dependent Effect; Activity [4]: Active; AUC(0-t) [5]: 597 ng·h/mL; Tmax [6]: 0.25 h; inhibition [7]: Tde; Activity [2]: 14.2%; Cmax [8]: 572 ng/mL; Activity [9]: Active; Activity [10]: Non-Toxic; AUC(0-inf) [11]: 614 ng·h/mL; Activity [12]: Active; k el [13]: 3.61e-05 s⁻¹; Activity [14]: Active; Activity [15]: Active; Activity [16]: Active; half-life [17]: 5.75 h; inhibition [18]: Dose-Dependent Effect
O=C(CCCCCCOc1ccc(-c2nc3ccccc3s2)cc1)NO	84.2%	
COc1ccc(-c2nc3ccc(C)cc3s2)cc1OCCCCCCC(=O)NO	67.8%	
COc1cc(-c2nc3ccccc3s2)cc(OC)c1OCCCCCCC(=O)NO	81.7%	
Cc1cc(-c2nc3ccccc3s2)ccc1OCCCCCCC(=O)NO	39.3%	
O=C(CCCCOc1ccc(-c2nc3ccccc3s2)cc1)NO	56%	
O=C(CCCCCCOc1ccc(-c2nc3cc(Cl)ccc3s2)cc1)NO	42.7%	
O=C(CCCCCCOc1ccc(-c2nc3ccccc3s2)c(F)c1)NO	83%	
COc1ccc(-c2nc3ccccc3s2)cc1OCCCCCCCC(=O)NO	28.2%	
O=C(CCCCCCOc1cccc(-c2nc3ccccc3s2)c1F)NO	68.7%	
